From US12662489B2 (Sitryx Therapeutics Limited, priority 2023, dated 2026)

Columns and labels:
[1] = target: T1, MTHFD1 recombinant human enzyme (Homo sapiens, UniProt P11586); test: MTHFD1 inhibition assay (NAD(P)H-Glo luminescence); details: MTHFD1 IC50, recombinant human enzyme 200 nM, NADP, band
T1 sequence (P11586 2-291 limits assumed): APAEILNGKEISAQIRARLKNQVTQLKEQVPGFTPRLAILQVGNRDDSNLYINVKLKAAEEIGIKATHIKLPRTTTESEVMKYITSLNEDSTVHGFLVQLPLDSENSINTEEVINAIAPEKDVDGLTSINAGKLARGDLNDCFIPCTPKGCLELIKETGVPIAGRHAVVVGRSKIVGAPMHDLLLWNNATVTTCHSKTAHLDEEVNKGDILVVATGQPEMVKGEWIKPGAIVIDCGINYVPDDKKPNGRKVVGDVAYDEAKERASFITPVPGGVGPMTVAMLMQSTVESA

[2] = target: T2, MTHFD2 recombinant human enzyme (Homo sapiens, UniProt P13995); test: MTHFD2 inhibition assay (NAD(P)H-Glo luminescence); details: for MTHFD1/MTHFD2 IC50 ratio: selectivity of MTHFD2 inhibition over MTHFD1, band
T2 sequence (P13995 36-350): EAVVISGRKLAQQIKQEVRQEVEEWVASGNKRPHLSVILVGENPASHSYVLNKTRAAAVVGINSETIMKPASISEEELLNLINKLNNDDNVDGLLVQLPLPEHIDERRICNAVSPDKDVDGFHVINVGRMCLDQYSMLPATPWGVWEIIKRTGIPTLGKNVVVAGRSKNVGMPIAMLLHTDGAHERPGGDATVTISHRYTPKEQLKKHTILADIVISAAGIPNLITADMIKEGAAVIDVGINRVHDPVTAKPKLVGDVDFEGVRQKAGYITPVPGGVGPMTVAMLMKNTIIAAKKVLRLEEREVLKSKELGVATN

COC[C@H]1CN(c2cc(C)c3c4c(c(=O)oc3c2C)CN(C(=O)c2ccc(C(=O)NS(=O)(=O)N(C)C)c(OC3C[C@@H]5C[C@@H]5C3)c2)CC4)CCN1C (mixture of isomers) [Example 108, 2-(bicyclo[3.1.0]hexan-3-yloxy)-N-(N,N-dimethylsulfamoyl)-4-(8-((R)-3-(methoxymethyl)-4-methylpiperazin-1-yl)-7,10-dimethyl-5-oxo-1,3,4,5-tetrahydro-2H-chromeno[3,4-c]pyridine-3-carbonyl)benzamide]
IC50 [1]: 10 to 100 nM
IC50 [2]: 10 to 100 nM
MTHFD1/MTHFD2 IC50 ratio [2]: F (<3)

COC[C@H]1CN(c2cc(C)c3c4c(c(=O)oc3c2C)CN(C(=O)c2ccc(C(=O)NS(=O)(=O)N3CCCC3)c(OC3C[C@@H]5C[C@@H]5C3)c2)CC4)CCN1C (mixture of isomers) [Example 109, 2-(bicyclo[3.1.0]hexan-3-yloxy)-4-(8-((R)-3-(methoxymethyl)-4-methylpiperazin-1-yl)-7,10-dimethyl-5-oxo-1,3,4,5-tetrahydro-2H-chromeno[3,4-c]pyridine-3-carbonyl)-N-(pyrrolidin-1-ylsulfonyl)benzamide]
IC50 [1]: 10 to 100 nM
IC50 [2]: 10 to 100 nM
MTHFD1/MTHFD2 IC50 ratio [2]: F (<3)

COC[C@H]1CN(c2ccc3c4c(c(=O)oc3c2C)CN(C(=O)c2ccc(C(=O)NS(=O)(=O)N(C)C)c(OC3C[C@@H]5C[C@@H]5C3)c2)CC4)CCN1C (mixture of isomers) [Example 113, 2-(bicyclo[3.1.0]hexan-3-yloxy)-N-(N,N-dimethylsulfamoyl)-4-(8-((R)-3-(methoxymethyl)-4-methylpiperazin-1-yl)-7-methyl-5-oxo-1,3,4,5-tetrahydro-2H-chromeno[3,4-c]pyridine-3-carbonyl)benzamide]
IC50 [1]: 10 to 100 nM
IC50 [2]: 100 to 1000 nM
MTHFD1/MTHFD2 IC50 ratio [2]: F (<3)

COC[C@H]1CN(c2ccc3c4c(c(=O)oc3c2C)CN(C(=O)c2ccc(C(=O)NS(=O)(=O)N3CCCC3)c(OC3C[C@@H]5C[C@@H]5C3)c2)CC4)CCN1C (mixture of isomers) [Example 114, 2-(bicyclo[3.1.0]hexan-3-yloxy)-4-(8-((R)-3-(methoxymethyl)-4-methylpiperazin-1-yl)-7-methyl-5-oxo-1,3,4,5-tetrahydro-2H-chromeno[3,4-c]pyridine-3-carbonyl)-N-(pyrrolidin-1-ylsulfonyl)benzamide]
IC50 [1]: 10 to 100 nM
IC50 [2]: 100 to 1000 nM
MTHFD1/MTHFD2 IC50 ratio [2]: F (<3)

COC[C@H]1CN(c2ccc3c4c(c(=O)oc3c2C)CN(C(=O)c2ccc(C(=O)NS(=O)(=O)N(C)C)c(OC3CCCC3)c2F)CC4)CCN1C [Example 5, (R)-2-(cyclopentyloxy)-N-(N,N-dimethylsulfamoyl)-3-fluoro-4-(8-(3-(methoxymethyl)-4-methylpiperazin-1-yl)-7-methyl-5-oxo-1,3,4,5-tetrahydro-2H-chromeno[3,4-c]pyridine-3-carbonyl)benzamide]
IC50 [1]: 1 to 10 nM
IC50 [2]: 10 to 100 nM
MTHFD1/MTHFD2 IC50 ratio [2]: F (<3)

COC[C@H]1CN(c2ccc3c4c(c(=O)oc3c2Cl)CN(C(=O)c2ccc(C(=O)NS(=O)(=O)N3CCCC3)c(OC3CCCC3)c2F)CC4)CCN1C [Example 6, (R)-4-(7-chloro-8-(3-(methoxymethyl)-4-methylpiperazin-1-yl)-5-oxo-1,3,4,5-tetrahydro-2H-chromeno[3,4-c]pyridine-3-carbonyl)-2-(cyclopentyloxy)-3-fluoro-N-(pyrrolidin-1-ylsulfonyl)benzamide]
IC50 [1]: 1 to 10 nM
IC50 [2]: 10 to 100 nM
MTHFD1/MTHFD2 IC50 ratio [2]: F (<3)

COC[C@H]1CN(c2ccc3c4c(c(=O)oc3c2C)CN(C(=O)c2ccc(C(=O)NS(=O)(=O)C3(C)CC3)c(OC3CCC3)c2)CC4)CCN1C [Example 7, (R)-2-cyclobutoxy-4-(8-(3-(methoxymethyl)-4-methylpiperazin-1-yl)-7-methyl-5-oxo-1,3,4,5-tetrahydro-2H-chromeno[3,4-c]pyridine-3-carbonyl)-N-((1-methylcyclopropyl)sulfonyl)benzamide]
IC50 [1]: 10 to 100 nM
IC50 [2]: 10 to 100 nM
MTHFD1/MTHFD2 IC50 ratio [2]: F (<3)

COC[C@H]1CN(c2ccc3c4c(c(=O)oc3c2C)CN(C(=O)c2ccc(C(=O)NS(=O)(=O)C3(C)CC3)c(OC3CCCC3)c2)CC4)CCN1C [Example 8, (R)-2-(cyclopentyloxy)-4-(8-(3-(methoxymethyl)-4-methylpiperazin-1-yl)-7-methyl-5-oxo-1,3,4,5-tetrahydro-2H-chromeno[3,4-c]pyridine-3-carbonyl)-N-((1-methylcyclopropyl)sulfonyl)benzamide]
IC50 [1]: 10 to 100 nM
IC50 [2]: 10 to 100 nM
MTHFD1/MTHFD2 IC50 ratio [2]: F (<3)

COC[C@H]1CN(c2ccc3c4c(c(=O)oc3c2C)CN(C(=O)c2ccc(C(=O)NS(=O)(=O)C3(C)CC3)c(OC3CCCC3)c2F)CC4)CCN1C [Example 9, (R)-2-(cyclopentyloxy)-3-fluoro-4-(8-(3-(methoxymethyl)-4-methylpiperazin-1-yl)-7-methyl-5-oxo-1,3,4,5-tetrahydro-2H-chromeno[3,4-c]pyridine-3-carbonyl)-N-((1-methylcyclopropyl)sulfonyl)benzamide]
IC50 [1]: 10 to 100 nM
IC50 [2]: 10 to 100 nM
MTHFD1/MTHFD2 IC50 ratio [2]: F (<3)

COC[C@H]1CN(c2ccc3c4c(c(=O)oc3c2Cl)CN(C(=O)c2ccc(C(=O)NS(=O)(=O)C3(C)CC3)c(OC3CCC3)c2)CC4)CCN1C [Example 10, (R)-4-(7-chloro-8-(3-(methoxymethyl)-4-methylpiperazin-1-yl)-5-oxo-1,3,4,5-tetrahydro-2H-chromeno[3,4-c]pyridine-3-carbonyl)-2-cyclobutoxy-N-((1-methylcyclopropyl)sulfonyl)benzamide]
IC50 [1]: 10 to 100 nM
IC50 [2]: 10 to 100 nM
MTHFD1/MTHFD2 IC50 ratio [2]: F (<3)

COC[C@H]1CN(c2cc(C)c3c4c(c(=O)oc3c2C)CN(C(=O)c2ccc(C(=O)NS(=O)(=O)N(C)C)c(O[C@@H]3C[C@@H]5C[C@@H]5C3)c2F)CC4)CCN1C [Example 11, 2-(((1R,3r,5S)-bicyclo[3.1.0]hexan-3-yl)oxy)-N-(N,N-dimethylsulfamoyl)-3-fluoro-4-(8-((R)-3-(methoxymethyl)-4-methylpiperazin-1-yl)-7,10-dimethyl-5-oxo-1,3,4,5-tetrahydro-2H-chromeno[3,4-c]pyridine-3-carbonyl)benzamide]
IC50 [1]: 1 to 10 nM
IC50 [2]: 1 to 10 nM
MTHFD1/MTHFD2 IC50 ratio [2]: F (<3)

COC[C@H]1CN(c2ccc3c4c(c(=O)oc3c2C)CN(C(=O)c2ccc(C(=O)NS(=O)(=O)N(C)C)c(O[C@@H]3C[C@@H]5C[C@@H]5C3)c2F)CC4)CCN1C [Example 13, 2-(((1R,3r,5S)-bicyclo[3.1.0]hexan-3-yl)oxy)-N-(N,N-dimethylsulfamoyl)-3-fluoro-4-(8-((R)-3-(methoxymethyl)-4-methylpiperazin-1-yl)-7-methyl-5-oxo-1,3,4,5-tetrahydro-2H-chromeno[3,4-c]pyridine-3-carbonyl)benzamide]
IC50 [1]: 1 to 10 nM
IC50 [2]: 1 to 10 nM
MTHFD1/MTHFD2 IC50 ratio [2]: F (<3)

COC[C@H]1CN(c2ccc3c4c(c(=O)oc3c2Cl)CN(C(=O)c2ccc(C(=O)NS(=O)(=O)N3CCCC3)c(OC3CCC3)c2)CC4)CCN1C [Example 14, (R)-4-(7-chloro-8-(3-(methoxymethyl)-4-methylpiperazin-1-yl)-5-oxo-1,3,4,5-tetrahydro-2H-chromeno[3,4-c]pyridine-3-carbonyl)-2-cyclobutoxy-N-(pyrrolidin-1-ylsulfonyl)benzamide]
IC50 [1]: 10 to 100 nM
IC50 [2]: 10 to 100 nM
MTHFD1/MTHFD2 IC50 ratio [2]: F (<3)
